Data reported in US5688938A, “Calcium receptor-active molecules” (priority 1995, dated 1997).
Entries after “also recorded” stand apart in the source; their conditions may differ.

How the values were obtained:
[1] = molecular target: T1, parathyroid cell calcium receptor (Bos taurus, UniProt P35384); assay: cell-based; type: cell-based
T1 sequence (P35384 21-1085 limits assumed): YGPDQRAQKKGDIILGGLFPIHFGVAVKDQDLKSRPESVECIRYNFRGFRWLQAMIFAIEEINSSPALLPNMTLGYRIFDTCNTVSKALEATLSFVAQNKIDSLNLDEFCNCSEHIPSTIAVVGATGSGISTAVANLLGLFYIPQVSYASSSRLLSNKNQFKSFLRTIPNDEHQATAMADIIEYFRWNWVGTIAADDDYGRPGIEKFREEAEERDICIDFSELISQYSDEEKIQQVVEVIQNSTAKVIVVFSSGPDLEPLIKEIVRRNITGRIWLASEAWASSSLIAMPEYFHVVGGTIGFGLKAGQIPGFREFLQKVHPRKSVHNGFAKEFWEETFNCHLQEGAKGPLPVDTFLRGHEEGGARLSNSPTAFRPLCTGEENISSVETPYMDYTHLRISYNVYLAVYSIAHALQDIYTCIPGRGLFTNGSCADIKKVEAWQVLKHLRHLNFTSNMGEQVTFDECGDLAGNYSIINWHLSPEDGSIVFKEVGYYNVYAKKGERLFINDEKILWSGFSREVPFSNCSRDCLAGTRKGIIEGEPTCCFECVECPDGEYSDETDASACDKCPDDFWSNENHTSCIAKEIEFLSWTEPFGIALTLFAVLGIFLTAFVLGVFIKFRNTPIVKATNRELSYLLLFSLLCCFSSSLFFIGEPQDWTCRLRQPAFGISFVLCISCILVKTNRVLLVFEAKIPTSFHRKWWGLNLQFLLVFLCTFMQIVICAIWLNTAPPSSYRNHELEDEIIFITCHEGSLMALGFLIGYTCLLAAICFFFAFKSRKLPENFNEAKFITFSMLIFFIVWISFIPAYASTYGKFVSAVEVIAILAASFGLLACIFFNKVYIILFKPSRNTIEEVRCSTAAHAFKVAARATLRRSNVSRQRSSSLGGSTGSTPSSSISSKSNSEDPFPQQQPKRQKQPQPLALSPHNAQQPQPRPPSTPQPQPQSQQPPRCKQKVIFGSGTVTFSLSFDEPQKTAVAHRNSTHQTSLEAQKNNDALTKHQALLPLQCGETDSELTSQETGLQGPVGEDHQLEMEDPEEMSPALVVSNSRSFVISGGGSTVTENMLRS
Description: For example,.bovine parathyroid cells loaded with fura-2 are initially suspended in buffer containing 0.5 mM CaCl2. A test substance is added to the cuvette in a small volume (5-15 μl) and changes in the fluorescence signal are measured. Cumulative increases in the concentration of the test substance are made in the cuvette until some predetermined concentration is achieved or no further changes in fluorescence are noted.
This section describes procedures used to obtain and treat parathyroid cells from calves and humans. […] Human parathyroid glands, were obtained from patients undergoing surgical removal of parathyroid tissue for primary or uremic hyperparathyroidism (uremic HPT), and were treated similarly to bovine tissue.
Glands were trimmed of excess fat and connective tissue and then minced with fine scissors into cubes approximately 2-3 mm on a side. Dissociated parathyroid cells were prepared by collagenase digestion and then purified by centrifugation in Percoll buffer. The resultant parathyroid cell preparation was essentially devoid of red blood cells, adipocytes, and capillary tissue as assessed by phase contrast microscopy and Sudan black B staining. Dissociated and purified parathyroid cells were present as small clusters containing 5 to 20 cells.
The cells were then transferred to plastic flasks (75 or 150 cm^2 ; Falcon) and incubated overnight at 37° C. in a humid atmosphere of 5% CO2. No serum is added to these overnight cultures, since its presence allows the cells to attach to the plastic, undergo proliferation, and dedifferentiate. Cells cultured under the above conditions were readily removed from the flasks by decanting, and show the same viability as freshly prepared cells.
The cells were then pelleted, resuspended in the same buffer, but lacking the ester, and incubated a further 15 minutes at 37° C. The cells were subsequently washed twice with PCB containing 0.5 mM CaCl2 and 0.5% BSA and maintained at room temperature (about 20° C.). Immediately before use, the cells were diluted five-fold with prewarmed 0.5mM CaCl2 -PCB to obtain a final BSA concentration of 0.1%. The concentration of cells in the cuvette used for fluorescence recording was 1-2×10^6 /ml.
The fluorescence of indicator-loaded cells was measured at 37° C. in a spectrofluorimeter (Biomedical Instrumentation Group, University of Pennsylvania, Philadelphia, Pa.) equipped with a thermostated cuvette holder and magnetic stirrer using excitation and emission wavelengths of 340 and 510 nm, respectively. […] Leakage of dye is dependent on temperature and most occurs within the first 2 minutes after warming the cells in the cuvette. Dye leakage increases only very slowly thereafter. To correct the calibration for dye leakage, cells were placed in the cuvette and stirred at 37° C. for 2-3 minutes. The cell suspension was then removed, the cells pelleted, and the supernatant returned to a clean cuvette. […] This estimate was subtracted from the apparent Fmin.
Dissociated bovine parathyroid cells were purified on gradients of Percoll and cultured overnight in serum-free medium. […] That is,

[2] = serum ionized Ca^2+ in parathyroidectomized rats; type: in vivo, rat; conditions: 10 mg/kg i.p., 6 hours
From the text: To determine the primary target tissue upon which NPS R-467 acts to cause a hypocalcemic response, the parathyroid glands in rats were surgically removed. Animals receiving a total parathyroidectomy become hypocalcemic and are largely dependent upon dietary calcium to maintain serum Ca^2+ homeostasis.

[3] = serum/plasma Ca^2+, PTH and calcitonin in rats, oral; type: in vivo; conditions: rat, single oral dose, 3 hours
From the text: Rats (male, Sprague-Dawley, 250-300 g) were fed standard rat chow and fasted overnight prior to the experiment. NPS R-467 was suspended in corn oil and administered as a single oral dose through a gavage needle. Three hours later a sample of blood was taken from the tail vein and assessed for ionized Ca^2+ levels.

[4] = serum/blood calcium, PTH, albumin and phosphate in rats, intraperitoneal; type: in vivo, rat; conditions: 10 mg/kg i.p., 1 hour, normal diet
Description: Compounds shown to activate the bovine parathyroid cell calcium receptor in vitro were tested for hypocalcemic activity in vivo. […] […] […] Serum total calcium, albumin and phosphate were measured by techniques well known in the art.

[5] = tested on: human parathyroid calcium receptor (HuPCaR 5.2); assay: intracellular calcium in HEK293 cells transfected with HuPCaR 5.2; type: cell-based; conditions: Ca^2+ 10 mM, Mg^2+ 20 mM
Description: Cells obtained from the pool of hygromycin selected HEK293 cells transfected with Cep4B containing the HuPCaR 5.2 insert were plated on collagen coated Aklar squares which had been placed into individual wells of 12-well tissue culture plates. Two to six days later, medium was removed and the cells washed with balanced salt solution and 1 ml of buffer containing 1 μM fura2-AM, 1 mM CaCl2 and 0.1% BSA and […]. Measurements of fluorescence in response to calcium receptor agonists were performed at 37° C. in a spectrofluorimeter using excitation and emission wavelengths of 340 and 510 nm, respectively. For signal calibration, Fmax was determined after addition of ionomycin (4.0 μM) and the apparent Fmin was determined by addition of 0.3M EGTA, 2.5M Tris-HCl; pH 10.

[6] = molecular target: T2, human parathyroid cell calcium receptor (Homo sapiens, UniProt P41180); assay: Cl^- current in Xenopus oocytes expressing cloned human parathyroid calcium receptor; type: cell-based; conditions: pHuPCaR 5.2 and 4.0
T2 construct: cRNA injected in Xenopus oocytes
T2 sequence (P41180 20-1078 R990G/E1011Q): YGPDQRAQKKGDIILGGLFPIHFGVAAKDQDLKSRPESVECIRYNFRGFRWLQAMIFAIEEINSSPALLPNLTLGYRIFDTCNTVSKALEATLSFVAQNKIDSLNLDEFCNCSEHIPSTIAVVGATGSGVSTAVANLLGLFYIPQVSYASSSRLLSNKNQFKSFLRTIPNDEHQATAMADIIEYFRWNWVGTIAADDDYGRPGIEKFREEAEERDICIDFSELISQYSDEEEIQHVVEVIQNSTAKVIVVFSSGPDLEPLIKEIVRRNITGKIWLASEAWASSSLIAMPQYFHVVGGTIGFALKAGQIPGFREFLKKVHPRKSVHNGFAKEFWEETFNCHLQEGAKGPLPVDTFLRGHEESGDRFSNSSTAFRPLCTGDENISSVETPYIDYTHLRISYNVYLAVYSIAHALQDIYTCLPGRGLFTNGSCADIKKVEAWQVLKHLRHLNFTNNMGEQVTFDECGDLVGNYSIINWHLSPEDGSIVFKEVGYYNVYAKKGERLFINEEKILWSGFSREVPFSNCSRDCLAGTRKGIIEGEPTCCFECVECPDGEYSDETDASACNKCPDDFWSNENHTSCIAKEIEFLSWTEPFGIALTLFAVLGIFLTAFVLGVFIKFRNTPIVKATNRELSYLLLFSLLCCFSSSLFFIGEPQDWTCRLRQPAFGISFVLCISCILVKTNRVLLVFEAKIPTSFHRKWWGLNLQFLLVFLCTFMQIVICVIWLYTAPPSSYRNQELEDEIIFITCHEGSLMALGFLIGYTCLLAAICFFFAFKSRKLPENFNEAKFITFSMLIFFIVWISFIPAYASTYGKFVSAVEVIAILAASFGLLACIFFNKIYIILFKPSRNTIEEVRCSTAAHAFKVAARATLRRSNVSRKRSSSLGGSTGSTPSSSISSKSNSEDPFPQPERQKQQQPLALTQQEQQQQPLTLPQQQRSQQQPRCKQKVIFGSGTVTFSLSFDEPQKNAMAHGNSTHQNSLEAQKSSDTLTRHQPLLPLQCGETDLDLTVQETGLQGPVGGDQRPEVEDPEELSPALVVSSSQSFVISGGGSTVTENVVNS
Description: Representative cDNA inserts for both size classes were subcloned into the plasmid vector pBluescript SK. Linearization followed by in vitro transcription using T7 RNA polymerase produced cRNA transcripts. The cRNA transcripts were injected into Xenopus oocytes (150 ng/μl RNA; 50 nl/oocyte) for functional analysis. Following incubation periods of 2-4 days, the oocytes were assayed for the presence of functional calcium receptors. Both clone types gave rise to functional calcium receptors as assessed by the stimulation of calcium-activated chloride currents upon addition of appropriate calcium receptor agonists. […] Thus, both clones encode a functional, human parathyroid cell calcium receptor.
Xenopus oocytes were injected with pHuPCaR 5.2, the 5.2 Kb cDNA encoding a parathyroid cell calcium receptor derived from a human parathyroid cell adenoma. (See Example 27.) After two to three days, Cl^- currents were measured in the oocytes using a two-electrode voltage clamp.

[7] = tested on: parathyroid cell calcium receptor; assay: Cl^- current in Xenopus oocytes injected with (bovine) parathyroid cell mRNA; type: cell-based; conditions: 30 μM
Description: Following incubation, an oocyte was placed into a 100-μl plastic chamber and superfused with MBS at a flow rate of 0.5 ml/min using a peristaltic pump. Test molecules or inorganic polycations were added by rapidly moving the tubing into different buffers. Recording and current passing electrodes were constructed from thin-wall capillary tubing pulled to a resistance of 1-3 Mohms and filled with 3M KCl. […] Currents were recorded directly onto a strip chart recorder.

COc1cccc([C@@H](C)NCCCc2ccccc2)c1 [NPS R-467, (R)-(+)-N-(3-phenylpropyl)-α-methyl-3-methoxybenzylamine]
[Ca^2+]i response in presence of 0.5 mM extracellular Ca^2+ [1]: rapid and transient increase in [Ca^2+ ]i
[Ca^2+]i response in Ca^2+-free buffer after 10 μM neomycin ([1]; 30 μM NPS R-467): transient increase in [Ca^2+ ]i
[Ca^2+]i response in Ca^2+-free buffer after 100 μM neomycin ([1]; 30 μM NPS R-467): did not cause an increase in [Ca^2+ ]i
[Ca^2+]i response in Ca^2+-free buffer ([1]; no extracellular Ca^2+, NPS R-467 30 μM): abolished; also recorded: no increase in [Ca^2+ ]i
change in serum ionized Ca^2+ [2]: did not cause any change
reduction in serum ionized Ca^2+ [3]: dose-dependent reduction in serum levels of ionized Ca^2+
decrease in serum ionized Ca^2+ from control level [4]: 22%
increase in intracellular calcium [5]: Robust increases in intracellular calcium
activation of oocyte-expressed human receptor [6]: activated the oocyte-expressed receptor at about the same concentrations
Cl^- current in oocytes [7]: rapid increase
